{"source": "patent US20240374520A1", "about": "“PROTEOLIPID VESICLES FORMULATED WITH FUSION ASSOCIATED SMALL TRANSMEMBRANE PROTEINS” (priority 2020, published 2024)", "test_system": "WI-38 cells", "type": "cell-based, human", "settings": "Alamar Blue, 72 hours after addition to WI-38 cells", "procedure": "Conventional LNPs rely on endosomal escape for intracellular delivery, which results in limited nucleic acid release into the cytosol and is one of the major limitations of LNPs formulated for gene therapy (13, 20, 41). […] These lipids were utilized in a PLV formulation to promote nucleic acid encapsulation through charge neutralization. The optimal molar ratio of DODAP to pDNA was assessed by measuring the delivery and subsequent expression of DNA-encoded firefly luciferase (pDNA-FLuc) in retinal pigmented epithelial (ARPE-19) cells.\nCell cultures in a 96 well plates were treated with test compounds at indicated concentrations. After 24-96 hours, a 1/10 volume of Alamar blue solution (440 μM Resazurin; Sigma R7017 5GM) was added to the cells in culture medium and incubated for 2-4 hours at 37° C. 5% CO2. The Omega Fluostar (BMG LabTech) plate reader was used to measure the fluorescence (excitation wavelength of 540 nm and emission at 590 nm) of the treated cells. Cell viability was calculated using the following formula: […]"}
{"smiles": "CCCCCCCC/C=C\\CCCCCCCC(=O)OCC(CN(C)C)OC(=O)CCCCCCC/C=C\\CCCCCCCC", "note": "(centres unmarked) [DODAP, 1,2-dioleoyl-3-dimethylammonium-propane]", "values": [{"measurement": "tolerability / toxicity of cationic and ionizable lipids", "result": "most favorable tolerability"}]}
{"smiles": "CCCCCCCC/C=C\\CCCCCCCC(=O)OCC(C[N+](C)(C)C)OC(=O)CCCCCCC/C=C\\CCCCCCCC", "note": "(centres unmarked) [DOTAP, 1,2-dioleoyl-3-trimethylammonium-propane]", "values": [{"measurement": "tolerability / toxicity of cationic and ionizable lipids", "result": "slightly higher toxicity"}]}
